The target in test [1] is Adenosine receptor A2a (Rattus norvegicus, UniProt P30543). In words: Displacement of [3H]NECA from adenosine receptor A2a in rat striatial membrane. In kind it is cell membranes. Background: In a radioligand displacement assay an active substance lowers the binding of a labelled ligand.
Test [2] addresses T1, Adenosine receptor A1 (Rattus norvegicus, UniProt P25099).
T1 sequence (P25099 whole entry): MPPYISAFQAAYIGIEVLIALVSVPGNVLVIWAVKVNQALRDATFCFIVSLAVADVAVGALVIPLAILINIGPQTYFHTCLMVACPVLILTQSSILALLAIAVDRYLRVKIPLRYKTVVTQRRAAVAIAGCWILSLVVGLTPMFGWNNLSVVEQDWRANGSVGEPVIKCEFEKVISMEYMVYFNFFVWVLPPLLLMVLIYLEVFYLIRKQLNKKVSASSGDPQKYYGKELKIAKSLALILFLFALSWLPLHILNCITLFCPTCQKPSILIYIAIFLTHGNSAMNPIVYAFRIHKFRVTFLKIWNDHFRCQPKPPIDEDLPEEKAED
In words: Displacement of [3H]DPCPX from adenosine receptor A1 in rat brain membrane. In kind it is cell membranes.

Test [3] is filed under the species Rattus norvegicus. Description: Selectivity index, ratio of Ki for adenosine receptor A1 in rat brain membrane to Ki for adenosine receptor A2a in rat striatal membrane. In kind it is cell membranes.
The species entered for test [4] is Rattus norvegicus. Description: Selectivity index, ratio of Ki for adenosine receptor A2a in rat striatal membrane to Ki for adenosine receptor A1 in rat brain membrane. In kind it is cell membranes.
Test [5] has as its target T1, Adenosine receptor A1. In words: Displacement of [3H]DPCPX from adenosine receptor A1 in rat brain membrane in presence of GTP by GTP shift assay. In kind it is cell membranes.
Test [6] has as its target T2, Adenosine receptor A1 (Rattus norvegicus) (UniProt P25099).
T2 sequence (whole entry): T1 sequence (P25099 whole entry)
In words: Ratio of Ki for adenosine receptor A1 in rat brain membrane in presence of GTP to Ki for adenosine receptor A1 in rat brain membrane in absence of GTP. The test is classed as cell membranes.

Test [7] is described as follows: Antagonist activity at adenosine receptor A2a in [3H]adenine-labeled guinea pig cerebral cortical slices assessed as inhibition of 2-chloroadenosine-stimulated [3H]-cAMP accumulation. Set-up: species or system Cavia porcellus.

Each structure is given as a SMILES string. pKi: −log10 of the molar value.

The results in this text go back to ChEMBL document CHEMBL4041492 (Eur J Med Chem, 2017).

For orientation: pKi means the Ki on a negative log10 scale, so that one unit is a factor of ten.

Adenosine receptor A2a, sequence (P30543 whole entry): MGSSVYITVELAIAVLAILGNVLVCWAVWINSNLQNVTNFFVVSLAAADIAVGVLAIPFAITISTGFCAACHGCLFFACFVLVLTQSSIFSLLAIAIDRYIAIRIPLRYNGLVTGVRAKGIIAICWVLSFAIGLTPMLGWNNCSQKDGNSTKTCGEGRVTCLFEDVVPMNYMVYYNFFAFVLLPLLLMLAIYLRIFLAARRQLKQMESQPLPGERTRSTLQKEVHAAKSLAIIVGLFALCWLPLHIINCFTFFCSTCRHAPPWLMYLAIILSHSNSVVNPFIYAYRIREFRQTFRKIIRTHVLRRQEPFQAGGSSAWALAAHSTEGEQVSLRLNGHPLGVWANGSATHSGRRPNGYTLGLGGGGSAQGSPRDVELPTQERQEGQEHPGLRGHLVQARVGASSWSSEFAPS

With `Cn1c(=O)c2c(nc(CSc3ccc(Cl)cc3)n2C)n(C)c1=O`, the pKi in test [1] was 5.82; in test [2] it was 4.68. Also, the Ratio Ki in test [3] is 13.9; in test [4], 0.1.

`Cn1c(=O)c2c(nc(CSc3ccccc3)n2C)n(C)c1=O`: the pKi in test [1] was 5.48; in test [2] it was 5.31. For the same compound, the Ratio Ki in test [3] came to 1.5; in test [4], 0.8.

Turning to `Cn1c(=O)c2c(nc(NCc3ccccc3)n2C)n(C)c1=O`, the pKi was 5.35 in test [1] and 5.10 in test [2]. Further, the Ratio Ki in test [3] worked out at 1.8; in test [4], 0.6.

With `Cn1c(=O)c2c(nc(SCc3ccc(Cl)cc3)n2C)n(C)c1=O`, the results for the pKi in test [1] and in test [2] were 4.29 and 4.05, respectively. Besides, the figures for the Ratio Ki in test [3] and in test [4] were 1.8 and 0.6, respectively.

`Cn1c(=O)c2c(nc(COc3ccc(Cl)cc3)n2C)n(C)c1=O`: the pKi is 5.88 in test [1] and 5.12 in test [2]. Further, the values for the Ratio Ki in test [3] and in test [4] were 5.7 and 0.2, respectively.

Regarding `Cn1c(=O)c2c(nc(OCc3ccccc3)n2C)n(C)c1=O`, the values for the pKi in test [1], in test [2] and in test [5] were 5.37, 5.82 and 5.71, respectively. Besides, the values for the Ratio Ki in test [6], in test [3] and in test [4] were 1.2, 0.4 and 2.8, respectively.

`Cn1c(=O)c2c(nc(COc3ccccc3)n2C)n(C)c1=O`: the pKi in test [5] is 5.40. Besides, the results for the Ratio Ki in test [6], in test [3] and in test [4] were 1.3, 1.3 and 0.8, respectively.

Take `Cn1c(=O)c2c(nc(SCc3ccccc3)n2C)n(C)c1=O`: the pKi is 5.33 in test [1] and 5.36 in test [2]. Also, the Ratio Ki in test [3] came out at 0.9; in test [4], 1.1.

Take `Cn1c(=O)c2c(ncn2C)n(C)c1=O` [CAFFEINE]: the pKi in test [7] was 4.30.

With `Cn1c(=O)c2c(nc(OCc3ccc(Cl)cc3)n2C)n(C)c1=O`, the pKi was 5.48 in test [1] and 4.76 in test [2]. Moreover, the figures for the Ratio Ki in test [3] and in test [4] were 5.3 and 0.2, respectively.

As for `Cn1c(=O)c2c(nc(CCc3ccccc3)n2C)n(C)c1=O`, the Ratio Ki in test [3] amounted to 1.2; in test [4], 0.9.
